Test results as given in patent US10208074B2, “Pyrazole compounds and method for making and using the compounds” (Rigel Pharmaceuticals, Inc., priority 2015, dated 2019).
Structures can show the parent of a compound that is named as a salt.

Legend:
[1] = tested on: IL-23 (p19/p40); experiment: IL23-p19 ELISA, Dendritic, LPS (compound screening using DC cells); format: cell-based, Human; conditions: Homo sapiens, 18 h, PBMC-derived DC cells, IFNγ primed, LPS 1 μg/ml, 18 hours, 10 pt; read-out: IL23-p19 ELISA, Dendritic, LPS, 10 pt, EC50
Outline: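 Human PBMC-derived dendritic cells (7 d GM-CSF 100 ng/ml + IL-4 20 ng/ml), primed 24 h with IFNγ 50 ng/ml, pre-incubated 1 h with compound, then stimulated 18 h with LPS 1 μg/ml. Supernatant IL-23 measured by p19-capture/p40-detection chemiluminescent ELISA; CellTiter Glo checks cytotoxicity.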

[2] = tested on: IL-23p19; experiment: LPS induced IL23p19 in THP-1 cells (with IFNγ primed) assay; format: cell-based, Human; conditions: Homo sapiens, THP-1, 18 h, THP-1 cells, IFNγ primed, LPS 1 ug/mL, 18 hours, 10 pt; read-out: IL23-p19 ELISA, THP1-IFNy, LPS, 10 pt EC50
Outline: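 THP-1 cells primed ~18 h with IFNγ (50 ng/mL), pre-incubated 1 h with compound at 37 °C, then stimulated 18 h with LPS (1 ug/mL final). Supernatant IL-23p19 measured by sandwich ELISA with chemiluminescent read-out; EC50 from curve fitting. Toxicity checked on the remaining cells by Cell Titer Glo.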

SMILES | EC50 [1] [nM] | EC50 [2] [nM]
Cn1cc(-c2ccc(C(=O)Nc3cn(C4COC4)nc3-c3ccccn3)o2)cn1 [Compound I-26, 5-(1-methyl-1H-pyrazol-4-yl)-N-(1-(oxetan-3-yl)-3-(pyridin-2-yl)-1H-pyrazol-4-yl)furan-2-carboxamide] | 276 | 1320
CCO[C@H]1C[C@@H](n2cc(NC(=O)c3csc(-c4cn[nH]c4)n3)c(-c3ncccc3C(F)(F)F)n2)C1 [II-89, N-(1-((1,3-cis)-3-ethoxycyclobutyl)-3-(3-(trifluoromethyl)pyridin-2-yl)-1H-pyrazol-4-yl)-2-(1H-pyrazol-4-yl)thiazole-4-carboxamide] | 1130 | 589
CCOCCn1cc(NC(=O)c2coc(-c3cn[nH]c3)n2)c(-c2ccccn2)n1 [III-3, N-(1-(2-ethoxyethyl)-3-(pyridin-2-yl)-1H-pyrazol-4-yl)-2-(1H-pyrazol-4-yl)oxazole-4-carboxamide] | 170 | 243
CCOCCn1cc(NC(=O)c2csc(-c3c[nH]nc3C)n2)c(-c2ccccn2)n1 [II-21, N-(1-(2-ethoxyethyl)-3-(pyridin-2-yl)-1H-pyrazol-4-yl)-2-(3-methyl-1H-pyrazol-4-yl)thiazole-4-carboxamide, formic acid salt] | 569 | 315
O=C(Nc1cn(CCO)nc1-c1ncccn1)c1ccc(-c2cn[nH]c2)o1 [Compound I-15, N-(1-(2-hydroxyethyl)-3-(pyrimidin-2-yl)-1H-pyrazol-4-yl)-5-(1H-pyrazol-4-yl)furan-2-carboxamide] | 2200 | 2230
O=C(Nc1cn([C@H]2C[C@@H](OCC(F)(F)F)C2)nc1-c1ncccc1F)c1ccc(-c2cn[nH]c2)o1 [Compound I-152, N-(3-(3-fluoropyridin-2-yl)-1-((1s,3s)-3-(2,2,2-trifluoroethoxy)cyclobutyl)-1H-pyrazol-4-yl)-5-(1H-pyrazol-4-yl)furan-2-carboxamide formate] | 71.6 | 31.9
O=C(Nc1cn([C@H]2C[C@@H](OCC(F)(F)F)C2)nc1-c1cccc(F)n1)c1ccc(-c2cn[nH]c2)o1 [Compound I-150, N-(3-(6-fluoropyridin-2-yl)-1-((1s,3s)-3-(2,2,2-trifluoroethoxy)cyclobutyl)-1H-pyrazol-4-yl)-5-(1H-pyrazol-4-yl)furan-2-carboxamide formate] | 226 | 64.8
CCOCCn1cc(NC(=O)c2ccc(-c3c[nH]nc3C(F)(F)F)o2)c(-c2ccccn2)n1 [Compound I-41, N-(1-(2-ethoxyethyl)-3-(pyridin-2-yl)-1H-pyrazol-4-yl)-5-(3-(trifluoromethyl)-1H-pyrazol-4-yl)furan-2-carboxamide formate] | 3940 | 2570
CCO[C@H]1C[C@@H](n2cc(NC(=O)c3ccc(-c4c[nH]nc4C)o3)c(-c3ccccn3)n2)C1 [Compound I-29, N-(1-((1,3-cis)-3-ethoxycyclobutyl)-3-(pyridin-2-yl)-1H-pyrazol-4-yl)-5-(3-methyl-1H-pyrazol-4-yl)furan-2-carboxamide] | 97.2 | 206
CCCNC(=O)N1CC(n2cc(NC(=O)c3ccc(-c4cn[nH]c4)o3)c(-c3ccccn3)n2)C1 [Compound I-86, 3-[4-{5-(1H-Pyrazol-4-yl)furan-2-carboxamido}-3-(pyridine-2-yl)-1H-pyrazol-1-yl]-N-propylazetidine-1-carboxamide, free base] | 63.7 | 61.4
O=C(Nc1cn(C2CCC2)nc1-c1ccccn1)c1csc(-c2cn[nH]c2)n1 [II-121, N-(1-cyclobutyl-3-(pyridin-2-yl)-1H-pyrazol-4-yl)-2-(1H-pyrazol-4-yl)thiazole-4-carboxamide] | 44.4 | 98.6
